For 16 molecules, Ki results are on record in ChEMBL document CHEMBL1136790, “Identification of 1-arylmethyl-3- (2-aminoethyl)-5-aryluracil as novel gonadotropin-releasing hormone receptor antagonists” (J Med Chem, 2003).

The target of assay [1] is T1, Gonadotropin-releasing hormone receptor (Homo sapiens, UniProt P30968).
T1 sequence (P30968 whole entry): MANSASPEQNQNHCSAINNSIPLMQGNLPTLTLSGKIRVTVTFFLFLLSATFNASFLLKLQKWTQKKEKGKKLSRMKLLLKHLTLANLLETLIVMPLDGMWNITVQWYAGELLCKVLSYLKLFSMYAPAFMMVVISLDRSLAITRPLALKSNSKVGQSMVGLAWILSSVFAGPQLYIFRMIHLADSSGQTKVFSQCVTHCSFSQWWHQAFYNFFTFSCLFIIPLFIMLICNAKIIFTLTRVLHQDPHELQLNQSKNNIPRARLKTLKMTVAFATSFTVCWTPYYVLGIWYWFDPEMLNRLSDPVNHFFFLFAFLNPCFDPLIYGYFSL
Nature of the assay: Binding affinity was determined towards human gonadotropin-releasing hormone receptor.

In assay [2] the target is T1, Gonadotropin-releasing hormone receptor. As to the kind of experiment: Binding affinity was determined towards human Gonadotropin-releasing hormone receptor.

By Ki is commonly meant a measure of affinity in units of concentration, obtained from inhibition or displacement. A low value points to tighter binding. In assay [1], `COc1ccc(-c2c(C)n(Cc3c(F)cccc3F)c(=O)n(CCN(C)CCc3ccccn3)c2=O)cc1` displayed a Ki of 230 nM.

In assay [1], `Cc1c(-c2cccc(O)c2)c(=O)n(CCN(C)CCc2ccccn2)c(=O)n1Cc1c(F)cccc1F` displayed a Ki of 480 nM. For `COc1cccc(-c2c(C)n(Cc3c(F)cccc3F)c(=O)n(CCNCc3ccccc3)c2=O)c1`, affinity in assay [2] was put at a Ki of 240 nM. In assay [1], `CCc1cccc(-c2c(C)n(Cc3c(F)cccc3F)c(=O)n(CCN(C)CCc3ccccn3)c2=O)c1` returned a Ki of 220 nM.

In assay [1], `CCc1c(-c2cccc(OC)c2)c(=O)n(CCN(C)CCc2ccccn2)c(=O)n1Cc1c(F)cccc1F` gave a Ki of 2200 nM.

Regarding `Cc1c(-c2ccc(Oc3ccccc3)cc2)c(=O)n(CCN(C)CCc2ccccn2)c(=O)n1Cc1c(F)cccc1F`, the Ki in assay [1] is 30 nM. Molecule `Cc1c(-c2cccc(OC(F)(F)F)c2)c(=O)n(CCN(C)CCc2ccccn2)c(=O)n1Cc1c(F)cccc1F` showed a Ki in assay [1] of 4800 nM.

On to `Cc1c(-c2ccc3c(c2)OCO3)c(=O)n(CCN(C)CCc2ccccn2)c(=O)n1Cc1c(F)cccc1F`, for which, in assay [1], the Ki stood at 38 nM.

Take `COc1cccc(-c2cn(Cc3c(F)cccc3F)c(=O)n(CCN(C)CCc3ccccn3)c2=O)c1`: in assay [1], the affinity, expressed as Ki, was 1700 nM. On the same count and under the same terms, next, `COc1cccc(-c2c(C)n(Cc3c(F)cccc3F)c(=O)n(CCNCCc3c[nH]cn3)c2=O)c1`: 3800 nM; `COc1cccc(-c2c(C)n(Cc3c(F)cccc3F)c(=O)n(CCNCCc3ccccc3)c2=O)c1`: 1100 nM. Take `COc1cccc(-c2c(C)n(Cc3c(F)cccc3F)c(=O)n(CCN3CCC[C@H]3Cc3ccccn3)c2=O)c1`: the Ki in assay [1] was 130 nM. Turning to `Cc1c(-c2ccccc2)c(=O)n(CCN(C)CCc2ccccn2)c(=O)n1Cc1c(F)cccc1F`, the affinity in assay [1] corresponds to a Ki of 400 nM. Turning to `COc1cccc(-c2c(C)n(Cc3c(F)cccc3F)c(=O)n(CCN3CCCC3c3ccccn3)c2=O)c1` (stereo unspecified), affinity in assay [1] was put at a Ki of 530 nM. As for `Cc1c(-c2ccc3c(c2)OCCO3)c(=O)n(CCN(C)CCc2ccccn2)c(=O)n1Cc1c(F)cccc1F`, the affinity in assay [1], expressed as Ki, was 24 nM. Same read-out and setting: to `COc1cccc(-c2c(C)n(Cc3c(F)cccc3F)c(=O)n(CCN3CCC[C@@H]3Cc3ccccn3)c2=O)c1` belongs 4800 nM.
